# Measurements taken from publication PMC11955521, “A GTP-driven central carbon metabolism in the cellulolytic bacterium Ruminiclostridium cellulolyticum” (Communications Biology, 2025).
# Biological target: T1, Pyruvate kinase (PK) (Ruminiclostridium cellulolyticum, UniProt B8I6Q5)
# T1 construct: gene Ccel_2569; full-length, C-terminal His tag (pET28a), E. coli BL21(DE3), Ni-NTA and anion exchange
# T1 sequence (B8I6Q5 1-580): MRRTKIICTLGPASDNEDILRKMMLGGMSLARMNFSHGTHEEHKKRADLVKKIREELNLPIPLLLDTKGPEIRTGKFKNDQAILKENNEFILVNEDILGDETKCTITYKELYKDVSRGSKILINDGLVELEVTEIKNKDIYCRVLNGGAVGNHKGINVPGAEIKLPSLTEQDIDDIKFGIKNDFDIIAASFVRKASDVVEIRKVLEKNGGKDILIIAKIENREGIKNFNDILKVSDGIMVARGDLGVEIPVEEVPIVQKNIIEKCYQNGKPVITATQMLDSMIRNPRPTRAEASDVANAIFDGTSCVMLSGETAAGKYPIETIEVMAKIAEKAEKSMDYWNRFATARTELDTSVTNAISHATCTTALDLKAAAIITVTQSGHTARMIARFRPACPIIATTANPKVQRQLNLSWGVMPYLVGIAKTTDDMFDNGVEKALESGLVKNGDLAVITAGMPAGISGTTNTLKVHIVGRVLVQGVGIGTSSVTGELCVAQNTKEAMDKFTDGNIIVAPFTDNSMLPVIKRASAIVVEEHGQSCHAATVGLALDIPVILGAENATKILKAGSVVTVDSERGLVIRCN
# Assay: activation of PK, HPLC-RI of pyruvate
# Assay type: biochemical
# Conditions: allosteric activator only with GDP as co-substrate; FBP 0.5, 3, 10 mM; 20 mM MgCl2, 30 mM KCl, pH 7.0, 37 °C
smiles,measurement,value
O=P(O)(O)OC[C@H]1OC(O)(COP(=O)(O)O)[C@@H](O)[C@@H]1O (stereo partly shown) [FBP],"activation of PK, HPLC-RI of pyruvate",FBP was found to act as a potent allosteric activator only when GDP is the co-substrate
